Values quoted from earlier work, collected in PubChem BioAssay AID1259409 (Chemical Carcinogenesis Research Information System (CCRIS), 2018).

Tested on: rodent chemically induced tumor inhibition, incidence and multiplicity
Test: CCRIS tumor inhibitor studies
Conditions: Species: RAT

## C#CCN(C)[C@H](C)Cc1ccccc1
Carcinogen: 7,12-DIMETHYLBENZ[A]ANTHRACENE [57-97-6], Dose [Inhibitor]: 0.25 MG/KG BW/D FOR 4 WK BEGINNING 4 WK PRIOR TO FIRST CARCINOGEN DOSE (STUDY DURATION: 32 WK), Route [Inhibitor]: INTRAPERITONEAL, Strain/Sex: SPRAGUE-DAWLEY/FEMALE, Target Tissue: Type of Lesion: MAMMARY GLAND: TUMOR, Dose [Carcinogen]: 10 MG IN 1 ML PEANUT OIL ONCE (STUDY DURATION: 32 WK), Promoter: NONE
  tumour outcome (control, treated, inhibition, significance): 13/15 (87%), 8/15 (53%), 39%, not significant
Carcinogen: 7,12-DIMETHYLBENZ[A]ANTHRACENE [57-97-6], Dose [Inhibitor]: 0.25 MG/KG BW/D FOR 4 WK BEGINNING 4 WK PRIOR TO FIRST CARCINOGEN DOSE, FOLLOWED BY 0.25 MG/KG BW/D FOR 27 WK POST LAST, Route [Inhibitor]: INTRAPERITONEAL, Strain/Sex: SPRAGUE-DAWLEY/FEMALE, Target Tissue: Type of Lesion: MAMMARY GLAND: TUMOR, Dose [Carcinogen]: 10 MG IN 1 ML PEANUT OIL ONCE (STUDY DURATION: 32 WK), Promoter: NONE
  tumour outcome (control, treated, inhibition, significance): 13/15 (87%), 9/15 (60%), 31%, not significant
Carcinogen: 7,12-DIMETHYLBENZ[A]ANTHRACENE [57-97-6], Dose [Inhibitor]: 0.25 MG/KG BW/D FOR 27 WK BEGINNING 4 D POST LAST CARCINOGEN DOSE (STUDY DURATION: 32 WK), Route [Inhibitor]: INTRAPERITONEAL, Strain/Sex: SPRAGUE-DAWLEY/FEMALE, Target Tissue: Type of Lesion: MAMMARY GLAND: TUMOR, Dose [Carcinogen]: 10 MG IN 1 ML PEANUT OIL ONCE (STUDY DURATION: 32 WK), Promoter: NONE
  tumour outcome (control, treated, inhibition, significance): 13/15 (87%), 10/15 (67%), 23%, not significant
Carcinogen: 7,12-DIMETHYLBENZ[A]ANTHRACENE [57-97-6], Dose [Inhibitor]: 2.5 MG/KG BW/D FOR 4 WK BEGINNING 4 WK PRIOR TO FIRST CARCINOGEN DOSE (STUDY DURATION: 32 WK), Route [Inhibitor]: INTRAPERITONEAL, Strain/Sex: SPRAGUE-DAWLEY/FEMALE, Target Tissue: Type of Lesion: MAMMARY GLAND: TUMOR, Dose [Carcinogen]: 10 MG IN 1 ML PEANUT OIL ONCE (STUDY DURATION: 32 WK), Promoter: NONE
  tumour outcome (control, treated, inhibition, significance): 13/15 (87%), 8/15 (53%), 39%, not significant
Carcinogen: 7,12-DIMETHYLBENZ[A]ANTHRACENE [57-97-6], Dose [Inhibitor]: 2.5 MG/KG BW/D FOR 4 WK BEGINNING 4 WK PRIOR TO FIRST CARCINOGEN DOSE, FOLLOWED BY 2.5 MG/KG BW/D FOR 27 WK POST LAST CA, Route [Inhibitor]: INTRAPERITONEAL, Strain/Sex: SPRAGUE-DAWLEY/FEMALE, Target Tissue: Type of Lesion: MAMMARY GLAND: TUMOR, Dose [Carcinogen]: 10 MG IN 1 ML PEANUT OIL ONCE (STUDY DURATION: 32 WK), Promoter: NONE
  tumour outcome (control, treated, inhibition, significance): 13/15 (87%), 5/15 (33%), 62%, p<0.0001
Carcinogen: 7,12-DIMETHYLBENZ[A]ANTHRACENE [57-97-6], Dose [Inhibitor]: 2.5 MG/KG BW/D FOR 27 WK BEGINNING 4 D POST LAST CARCINOGEN DOSE (STUDY DURATION: 32 WK), Route [Inhibitor]: INTRAPERITONEAL, Strain/Sex: SPRAGUE-DAWLEY/FEMALE, Target Tissue: Type of Lesion: MAMMARY GLAND: TUMOR, Dose [Carcinogen]: 10 MG IN 1 ML PEANUT OIL ONCE (STUDY DURATION: 32 WK), Promoter: NONE
  tumour outcome (control, treated, inhibition, significance): 13/15 (87%), 6/15 (40%), 54%, p<0.0001

## C[Se]C[C@H](N)C(=O)O
Carcinogen: 7,12-DIMETHYLBENZ[A]ANTHRACENE, 57-97-6, Dose [Inhibitor]: 0, 0.000025 MOL/KG DIET BEGINNING 1 WK POST CARCINOGEN AND CONTINUED FOR STUDY DURATION (STUDY DURATION: 25 WK), Route [Inhibitor]: ORAL, Strain/Sex: CD-1/FEMALE, Target Tissue: Type of Lesion: MAMMARY GLAND: ADENOCARCINOMA, Dose [Carcinogen]: 10 MG ONCE, Promoter: NONE USED
  tumour outcome (control, treated, inhibition, significance): 25/30 (83%), 15/30 (50%), 40%, p<0.05
Carcinogen: 7,12-DIMETHYLBENZ[A]ANTHRACENE, 57-97-6, Dose [Inhibitor]: 0, 0.000025 MOL/KG DIET BEGINNING 2 WK PRIOR TO CARCINOGEN AND CONTINUED 1 WK POST CARCINOGEN (STUDY DURATION: 25 WK), Route [Inhibitor]: ORAL, Strain/Sex: CD-1/FEMALE, Target Tissue: Type of Lesion: MAMMARY GLAND: ADENOCARCINOMA, Dose [Carcinogen]: 10 MG ONCE, Promoter: NONE USED
  tumour outcome (control, treated, inhibition, significance): 25/30 (83%), 17/30 (57%), 31%, p<0.05
Carcinogen: 7,12-DIMETHYLBENZ[A]ANTHRACENE, 57-97-6, Dose [Inhibitor]: 0, 0.000025 MOL/KG DIET BEGINNING 2 WK PRIOR TO CARCINOGEN AND CONTINUED FOR STUDY DURATION (STUDY DURATION: 25 WK), Route [Inhibitor]: ORAL, Strain/Sex: CD-1/FEMALE, Target Tissue: Type of Lesion: MAMMARY GLAND: ADENOCARCINOMA, Dose [Carcinogen]: 10 MG ONCE, Promoter: NONE USED
  tumour outcome (control, treated, inhibition, significance): 22/25 (88%), 10/25 (40%), 55%, p<0.05

## C=C1/C(=C\C=C2/CCC[C@]3(C)[C@@H]([C@H](C)CCCC(C)C)CC[C@@H]23)C[C@@H](O)C[C@@H]1O
Carcinogen: N-METHYL-N'-NITRO-N-NITROSOGUANIDINE [70-25-7], Dose [Inhibitor]: 0.04 UG IN MEDIUM CHAIN TRIGLYCERIDE 3X/WK FOR 24 WK BEGINNING IMMEDIATELY POST LAST CARCINOGEN DOSE (STUDY DURATION: 48, Route [Inhibitor]: INTRAGASTRIC, Strain/Sex: WISTAR WKY/STD/MALE, Target Tissue: Type of Lesion: STOMACH AND SMALL INTESTINE: TUMOR, Dose [Carcinogen]: 0.01% IN DRINKING WATER FOR 24 WK (STUDY DURATION: 48 WK), Promoter: NONE
  tumour outcome (control, treated, inhibition, significance): 16/30 (53%), 8/30 (27%), 49%, p<0.05
Carcinogen: N-METHYL-N'-NITRO-N-NITROSOGUANIDINE, 70-25-7, Dose [Inhibitor]: 0, 0.04 UG 3/WK FOR 24 WK BEGINNING POST CARCINOGEN TREATMENT (STUDY DURATION: 48 WK), Route [Inhibitor]: GAVAGE, Strain/Sex: WISTAR/MALE, Target Tissue: Type of Lesion: GASTROINTESTINAL TRACT: TUMOR, Dose [Carcinogen]: 0.01% IN DRINKING WATER FOR 24 WK, Promoter: NONE USED
  tumour outcome (control, treated, inhibition, significance): 16/30 (53%), 8/30 (27%), 49%, p<0.05
Carcinogen: N-METHYL-N-NITROSOUREA, 684-93-5, Dose [Inhibitor]: 0, 0.04 UG IN 0.2 ML OF MEDIUM CHAIN TRIGLYCERIDE 3/WK FOR 40 WK (STUDY DURATION: 46 WK), Route [Inhibitor]: INTRAGASTRIC, Strain/Sex: F344/FEMALE, Target Tissue: Type of Lesion: COLON: TUMOR, Dose [Carcinogen]: 1 MG IN 0.5 ML DISTILLED WATER 1/WK FOR 40 WK, Promoter: NONE USED
  tumour outcome (control, treated, inhibition, significance): 21/24 (88%), 12/25 (48%), 45%, p<0.01
Carcinogen: N-METHYL-N-NITROSOUREA, 684-93-5, Dose [Inhibitor]: 0.04 UG IN 0.2 ML OF MEDIUM CHAIN TRIGLYCERIDE FOLLOWING EACH PROMOTER DOSE 3/WK FOR 48 WK (STUDY DURATION: 50 WK), Route [Inhibitor]: GAVAGE, Strain/Sex: F344/FEMALE, Target Tissue: Type of Lesion: COLON: ADENOMA OR ADENOCARCINOMA OR LEIOMYOSARCOMA, Dose [Carcinogen]: 2.5 MG IN 0.5 ML DISTILLED WATER TWICE IN 1 WK, Promoter: LITHOCHOLIC ACID, 434-13-9
  tumour outcome (control, treated, inhibition, significance): 15/32 (47%), 6/30 (20%), 57%, p<0.05
